Experimental data reported in US10150770B2, “Crystal form of bisulfate of JAK inhibitor and preparation method therefor” (Jiangsu Hengrui Medicine Co., Ltd., priority 2014, dated 2018).

Test: Stability test of solid forms spread flat in the air (lighting, heating, high humidity), purity detected by HPLC
Assay type: physicochemical
Conditions: for purity as detected by HPLC, 40° C.: heating 40° C.; for purity as detected by HPLC, 60° C.: heating 60° C.; for purity as detected by HPLC, RH 75%: high humidity RH 75%; for purity as detected by HPLC, RH 90%: high humidity RH 90%; for purity as detected by HPLC, Lighting: lighting 4500 Lux
Experimental: The amorphous sample prepared in Example 1 and crystal form I prepared in Example 3 were spread flat in the air to test their stability under the conditions of lighting (4500 Lux), heating (40° C., 60° C.), and high humidity (RH 75%, RH 90%).

## COc1nsc(NC(=O)N2C[C@H]3C[C@H](N(C)c4ncnc5[nH]ccc45)C[C@H]3C2)n1.O=S(=O)(O)O [Amorphous Form, (3aR,5s,6aS)—N-(3-methoxyl-1,2,4-thiadiazole-5-yl)-5-(methyl(7H-pyrrolo[2,3-d]pyrimidine-4-yl)amino)hexahydrocyclopenta[c]pyrrole-2(1H)-formamide bisulfate]
Day 0
  purity as detected by HPLC, 40° C.: 98.33%
  purity as detected by HPLC, 60° C.: 98.33%
  purity as detected by HPLC, RH 75%: 98.33%
  purity as detected by HPLC, RH 90%: 98.33%
  purity as detected by HPLC, Lighting: 98.33%
Day 5
  purity as detected by HPLC, 40° C.: 97.65%
  purity as detected by HPLC, 60° C.: 94.53%
  purity as detected by HPLC, RH 75%: 98.32%
  purity as detected by HPLC, RH 90%: 99.14%
  purity as detected by HPLC, Lighting: 98.04%
Day 10
  purity as detected by HPLC, 40° C.: 96.61%
  purity as detected by HPLC, 60° C.: 92.12%
  purity as detected by HPLC, RH 75%: 98.16%
  purity as detected by HPLC, RH 90%: 99.12%
  purity as detected by HPLC, Lighting: 97.51%
  effect of high humidity on stability: does not have much effect

## COc1nsc(NC(=O)N2C[C@H]3C[C@H](N(C)c4ncnc5[nH]ccc45)C[C@H]3C2)n1.O=S(=O)(O)O [Crystal form I, (3aR,5s,6aS)—N-(3-methoxyl-1,2,4-thiadiazole-5-yl)-5-(methyl(7H-pyrrolo[2,3-d]pyrimidine-4-yl)amino)hexahydrocyclopenta[c]pyrrole-2(1H)-formamide bisulfate]
Day 0
  purity as detected by HPLC, 40° C.: 99.45%
  purity as detected by HPLC, 60° C.: 99.45%
  purity as detected by HPLC, RH 75%: 99.45%
  purity as detected by HPLC, RH 90%: 99.45%
  purity as detected by HPLC, Lighting: 99.45%
Day 5
  purity as detected by HPLC, 40° C.: 99.42%
  purity as detected by HPLC, 60° C.: 99.36%
  purity as detected by HPLC, RH 75%: 99.42%
  purity as detected by HPLC, RH 90%: 99.42%
  purity as detected by HPLC, Lighting: 99.40%
Day 10
  purity as detected by HPLC, 40° C.: 99.42%
  purity as detected by HPLC, 60° C.: 99.35%
  purity as detected by HPLC, RH 75%: 99.40%
  purity as detected by HPLC, RH 90%: 99.39%
  purity as detected by HPLC, Lighting: 99.39%
  effect of high humidity on stability: does not have much effect
Lighting and high temperature, compared with the amorphous sample
  stability under the conditions of lighting and high temperature: significantly better than that of the amorphous sample
